Data as given in paper PMC7595966, “Scutellarin is Highly Likely to be Responsible for Drug-Drug Interactions Mediated by Hepatic Organic Anion-Transporting Polypeptide1B3” (Pharmaceutical Research, 2020).

Columns and labels:
hOATP1B3 = target: T1, hOATP1B3 (Homo sapiens, UniProt Q9NPD5); assay: cell-based
T1 construct: gene SLCO1B3
T1 sequence (Q9NPD5 1-702): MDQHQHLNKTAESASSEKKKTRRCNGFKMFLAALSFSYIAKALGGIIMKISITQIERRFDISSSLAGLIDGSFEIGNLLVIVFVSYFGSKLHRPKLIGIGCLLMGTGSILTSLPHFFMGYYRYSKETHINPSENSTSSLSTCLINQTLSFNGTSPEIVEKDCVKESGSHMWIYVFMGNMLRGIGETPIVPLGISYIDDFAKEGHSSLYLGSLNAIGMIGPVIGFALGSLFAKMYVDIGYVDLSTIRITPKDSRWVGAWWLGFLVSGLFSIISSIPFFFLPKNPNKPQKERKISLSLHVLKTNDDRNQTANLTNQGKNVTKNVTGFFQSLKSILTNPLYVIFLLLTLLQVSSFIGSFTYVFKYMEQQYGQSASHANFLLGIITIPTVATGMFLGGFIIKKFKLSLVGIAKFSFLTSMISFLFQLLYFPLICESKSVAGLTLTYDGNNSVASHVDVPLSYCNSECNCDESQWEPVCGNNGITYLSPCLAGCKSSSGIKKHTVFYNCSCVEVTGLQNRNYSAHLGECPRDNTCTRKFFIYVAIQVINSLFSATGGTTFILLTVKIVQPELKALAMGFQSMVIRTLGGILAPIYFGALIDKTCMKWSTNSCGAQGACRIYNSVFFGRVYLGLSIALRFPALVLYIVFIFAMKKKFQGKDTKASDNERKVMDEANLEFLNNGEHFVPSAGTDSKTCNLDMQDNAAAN

rOATP1B2 = target: T2, rOATP1B2 (Rattus norvegicus, UniProt Q9QZX8); assay: cell-based
T2 construct: gene Slco1b2
T2 sequence (Q9QZX8 1-687): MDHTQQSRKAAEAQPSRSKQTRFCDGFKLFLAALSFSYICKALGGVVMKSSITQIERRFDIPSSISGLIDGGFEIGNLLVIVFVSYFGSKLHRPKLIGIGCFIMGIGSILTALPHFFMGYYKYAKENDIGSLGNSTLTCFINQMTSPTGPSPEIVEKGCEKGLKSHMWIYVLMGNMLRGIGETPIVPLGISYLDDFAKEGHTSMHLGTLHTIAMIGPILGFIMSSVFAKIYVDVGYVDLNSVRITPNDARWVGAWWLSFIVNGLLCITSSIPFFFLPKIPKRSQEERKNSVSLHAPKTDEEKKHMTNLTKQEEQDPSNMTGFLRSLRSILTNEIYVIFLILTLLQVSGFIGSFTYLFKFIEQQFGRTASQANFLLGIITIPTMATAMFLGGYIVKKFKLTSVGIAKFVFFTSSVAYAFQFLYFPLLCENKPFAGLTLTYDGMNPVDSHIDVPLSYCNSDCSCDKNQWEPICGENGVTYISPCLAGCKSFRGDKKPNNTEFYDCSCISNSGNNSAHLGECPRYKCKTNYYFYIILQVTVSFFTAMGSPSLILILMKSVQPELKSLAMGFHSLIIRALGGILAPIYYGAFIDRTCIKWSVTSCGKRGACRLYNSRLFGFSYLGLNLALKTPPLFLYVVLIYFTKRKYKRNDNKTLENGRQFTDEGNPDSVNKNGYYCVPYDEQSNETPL

How did the IC50 (hOATP1B3) turn out when `O=C(O)[C@H]1O[C@@H](Oc2cc3oc(-c4ccc(O)cc4)cc(=O)c3c(O)c2O)[C@H](O)[C@@H](O)[C@@H]1O` [Scutellarin] was run?
Its IC50 is 45.5 ± 6.67 µM.

What about the IC50 (rOATP1B2) of the same molecule?
The IC50 was 27.6 ± 3.97 µM.
